The target of assay [1] is LMP7 subunit of the immunoproteasome (Homo sapiens, UniProt P28062). The following applies: Singh et al., Br. J. Hematology 152(2): 155-163; cited from earlier work.
For assay [2], the target named is Beta5 (purified human constitutive proteasome) (Homo sapiens, UniProt P28074). Briefly: Determination of Beta5 activity (fluorescence intensity assay, Suc-LLVY-AMC). Format: biochemical. As for the experimental part:
Determination of Beta5 Activity
Measurement of Beta5 inhibition is performed in 384 well format based on fluorescence intensity assay.
(§1) Purified human constitutive proteasome (1.25 nM) and serial diluted compounds in DMSO (range of concentrations from 30 μM to 15 pM) or controls are incubated for 20 minutes or 120 minutes (long incubation) at 25° C. in assay buffer containing 50 mM Tris pH 7.4, 0.03% SDS, 1 mM EDTA and 1% DMSO. The reaction is initiated by the addition of the fluorogenic peptide substrate, Suc-LLVY-AMC (Bachem I-1395), at a concentration of 40 μM. After 60 minutes of incubation at 37° C., fluorescence intensity is measured at λex=350 nm and λem=450 nm with a fluorescence reader (Perkin Elmer Envision reader or equivalent).
(§2) Unless indicated otherwise the results are obtained after incubation for 20 minutes.

The target of assay [3] is LMP7 (purified human immunoproteasome) (Homo sapiens, UniProt P28062). Description: Determination of LMP7 activity (fluorescence intensity assay, Suc-LLVY-AMC). Format: biochemical. As for the experimental part:
Determination of LMP7 Activity
Measurement of LMP7 inhibition is performed in 384 well format based on fluorescence intensity assay.
as §1, with “immunoproteasome (0.25” for “constitutive proteasome (1.25”
as §2

Take `CC1=C(C(=O)N[C@H](C)C(=O)N[C@@H](Cc2c[nH]c3ccccc23)C(=O)N[C@@H](Cc2ccccc2)C(=O)[C@@]2(C)CO2)Cc2ccccc21` [PR-924]: in assay [1], the “selectivity for the LMP7 subunit of the immunoproteasome” value was 100 fold.
Usually IC50 stands for the point on the concentration scale where inhibition reaches its midpoint. A low value points to greater potency in that assay. `CCN(CCC(=O)N[C@@H](Cc1ccc(F)cc1)B(O)O)C(=O)c1ccc(C#N)cc1` [Compound No. 28, [(1R)-1-[3-[(4-cyanobenzoyl)-ethyl-amino]propanoylamino]-2-(4-fluorophenyl)ethyl]boronic acid]: the 50% inhibitory concentration (IC50) is 0.5 to 5 µM in assay [2] (incubation for 20 minutes) and less than 0.05 µM in assay [3] (incubation for 20 minutes). The “Selectivity LMP7 vs Beta5” value in assay [2] (incubation for 20 minutes) was “++++ (++++: 50 ≤ Selectivity < 70)”.
Taken in the same sequence, the figures for `CCc1cccc(C[C@H](NC(=O)CCCS(C)(=O)=O)B(O)O)c1` [Compound No. 21, [(1R)-2-(3-ethylphenyl)-1-(4-methylsulfonylbutanoylamino)ethyl]-boronic acid] were greater than 5 µM, 0.05 to 0.5 µM and “+++ (+++: 30 ≤ Selectivity < 50)”.
Taken in the same sequence, the figures for `CCN(CC(=O)N[C@@H](Cc1ccc(C)cc1C)B(O)O)S(=O)(=O)c1ccc(C)cc1` [Compound No. 30, [(1R)-2-(2,4-dimethylphenyl)-1-[[2-[ethyl(p-tolylsulfonyl)amino]acetyl]-amino]ethyl]boronic acid] were 0.5 to 5 µM, less than 0.05 µM and “+++++ (+++++: Selectivity ≥ 70)”.
Taken in the same sequence, the figures for `CCN(CC(=O)N[C@@H](Cc1ccc(C)cc1C)B(O)O)C(=O)CCl` [Compound No. 37, [(1R)-1-[[2-[(2-chloroacetyl)-ethyl-amino]acetyl]amino]-2-(2,4-dimethylphenyl)ethyl]boronic acid] were greater than 5 µM, 0.05 to 0.5 µM and “+++ (+++: 30 ≤ Selectivity < 50)”.
For `CCN(CC(=O)N[C@@H](Cc1ccc(C)cc1)B(O)O)S(=O)(=O)c1ccccc1` [Compound No. 16, [(1R)-1-[[2-[benzenesulfonyl(ethyl)amino]acetyl]amino]-2-(p-tolyl)ethyl]boronic acid], in assay [2] (incubation for 20 minutes), the half-maximal inhibitory concentration (IC50) was in the range of 0.05 to 0.5 µM and the “Selectivity LMP7 vs Beta5” value is given as “+++ (+++: 30 ≤ Selectivity < 50)”. Also, the IC50 in assay [3] (incubation for 20 minutes) was less than 0.05 µM.
Turning to `CCN(CC(=O)N[C@@H](Cc1coc2c(C)cccc12)B(O)O)S(=O)(=O)c1ccc(C)cc1` [Compound No. 43, [(1R)-1-[[2-[ethyl(p-tolylsulfonyl)amino]acetyl]amino]-2-(7-methylbenzofuran-3-yl)ethyl]boronic acid], in assay [2] (long incubation (120 min)), the IC50 is greater than 5 µM and the “Selectivity LMP7 vs Beta5” value is on record as “+++++ (+++++: Selectivity ≥ 70)”. For the same compound, the IC50 in assay [3] (long incubation (120 min)) was in the range of 0.05 to 0.5 µM.

The values are drawn from patent publication US10253049B2, “Boronic acid derivatives” (MERCK PATENT GMBH, priority 2014, dated 2019).
